From US20230365592A1 (Agios Pharmaceuticals, Inc., priority 2022, published 2023) come the findings set out here.

Molecules are shown by their SMILES.

The first experiment addresses T1, human PAH with the R408W mutation (Homo sapiens, UniProt P00439, R408W).
T1 construct: expressed in transfected cells
T1 sequence (P00439 1-452 R408W): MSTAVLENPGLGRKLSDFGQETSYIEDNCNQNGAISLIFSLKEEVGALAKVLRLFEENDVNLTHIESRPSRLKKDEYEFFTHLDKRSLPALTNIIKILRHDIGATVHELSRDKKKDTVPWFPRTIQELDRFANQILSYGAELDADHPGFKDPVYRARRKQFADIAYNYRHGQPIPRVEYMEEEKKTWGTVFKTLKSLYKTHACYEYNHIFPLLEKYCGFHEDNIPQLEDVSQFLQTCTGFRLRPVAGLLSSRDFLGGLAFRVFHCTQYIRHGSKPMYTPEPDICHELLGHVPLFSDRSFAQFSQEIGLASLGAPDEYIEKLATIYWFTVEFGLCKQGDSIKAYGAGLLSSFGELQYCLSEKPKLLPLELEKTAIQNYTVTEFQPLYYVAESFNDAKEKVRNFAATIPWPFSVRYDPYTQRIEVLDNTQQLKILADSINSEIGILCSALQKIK
Put plainly: Cell Based Phenylalanine Flux Assay.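 Note: after compound treatment, cells received sepiapterin plus isotope-labelled Phenylalanine for 4 hours, then labelled Tyrosine in the medium was quantified, 10-point 2-fold dilution series run in duplicate.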 Conditions: A375 cells expressing R408W PAH; 24 hrs with compound, then 20 µM sepiapterin and 800 µM 13C9,15N-Phenylalanine for 4 hours; 13C-Tyrosine by LC-MS; average where tested multiple times; read-out: AC50.
As to `CN(C)CCc1ccc2c(C(=O)N3CCc4[nH]cnc4C3c3cc4cccc(C(F)(F)F)n4n3)cnn2c1` (centres unmarked), the AC50 was in the range of 1000 to 5000 nM.
Still for that read-out and setting: as for `Cc1nnc(C(=O)N2CCc3[nH]cnc3C2c2cc3cc(F)ccn3n2)o1` (centres unmarked), the figure is 1000 to 5000 nM; as for `CC(C)c1nnc(C(=O)N2CCc3[nH]cnc3[C@@H]2c2cc3cccc(C(F)(F)F)n3n2)o1` (single isomer, unassigned), 1000 to 5000 nM.
For `Cn1nc(C2CC2)nc1C(=O)N1CCc2[nH]cnc2C1c1cc2cccc(Cl)n2n1` (centres unmarked), the AC50 was 1000 to 5000 nM.
For the compound `Fc1cccn2nc(C3c4nc[nH]c4CCN3c3nnc(C4CCC4)o3)cc12` (centres unmarked), the AC50 was 1000 to 5000 nM.
`Cc1ccn2nc(C3c4nc[nH]c4CCN3C(=O)c3nnc(C(C)(C)F)o3)cc2c1` (centres unmarked): the AC50 lay in the range of 1000 to 5000 nM.
As for `O=C(c1nnc(N2CC(F)C2)o1)N1CCc2[nH]cnc2C1c1cc2ccccn2n1` (centres unmarked), the AC50 lay in the range of 1000 to 5000 nM.

Staying with this experiment, now noted: A375 cells expressing human PAH R408W; 24 hrs compound incubation; 13C-Tyrosine by LC-MS; average where tested multiple times; read-out: AC50.
Regarding `FC(F)(F)c1cccn2nc([C@@H]3c4nc[nH]c4CCN3c3nnc(-c4ccncn4)o3)cc12` [Example 2162, (S)-2-(pyrimidin-4-yl)-5-(4-(4-(trifluoromethyl)pyrazolo[1,5-a]pyridin-2-yl)-1,4,6,7-tetrahydro-5H-imidazo[4,5-c]pyridin-5-yl)-1,3,4-oxadiazole], the AC50 was 500 to 1000 nM.
Same read-out and setting: as for `FC(F)(F)c1cccn2nc([C@H]3c4nc[nH]c4CCN3c3nnc(-c4ccncn4)o3)cc12` [Example 2163, (R)-2-(pyrimidin-4-yl)-5-(4-(4-(trifluoromethyl)pyrazolo[1,5-a]pyridin-2-yl)-1,4,6,7-tetrahydro-5H-imidazo[4,5-c]pyridin-5-yl)-1,3,4-oxadiazole], the figure is more than 5000 nM.
In the case of `Cc1cccn2nc([C@@H]3c4nc[nH]c4CCN3c3nnc(C(F)(F)F)o3)cc12` [Example 1809, (S)-2-(4-(4-methylpyrazolo[1,5-a]pyridin-2-yl)-6,7-dihydro-1H-imidazo[4,5-c]pyridin-5(4H)-yl)-5-(trifluoromethyl)-1,3,4-oxadiazole], the AC50 was less than 500 nM.
As to `COc1ccc2c(C(=O)N3CCc4[nH]cnc4[C@H]3c3cc4c(C)cccn4n3)cnn2c1` [Example 2450, (S)-(6-methoxypyrazolo[1,5-a]pyridin-3-yl)(4-(4-methylpyrazolo[1,5-a]pyridin-2-yl)-6,7-dihydro-1H-imidazo[4,5-c]pyridin-5(4H)-yl)methanone], the AC50 was 1000 to 5000 nM.

The same experiment, now with this note: A375 cells expressing human R408W PAH; 24 hrs compound incubation; 13C-Tyrosine by LC-MS; average where tested multiple times; read-out: AC50.
Consider `CC(C)(F)c1nnc(C(=O)N2CCc3[nH]cnc3[C@H]2c2cc3cccc(C(F)(F)F)n3n2)o1` [Example 1161, (S)-(5-(2-fluoropropan-2-yl)-1,3,4-oxadiazol-2-yl)(4-(7-(trifluoromethyl)pyrazolo[1,5-a]pyridin-2-yl)-6,7-dihydro-1H-imidazo[4,5-c]pyridin-5(4H)-yl)methanone], for which the AC50 lay in the range of 500 to 1000 nM.
Still for that read-out and setting: the same measure for `Cc1ccc2cc([C@@H]3c4nc[nH]c4CCN3C(=O)c3cnco3)nn2c1` [Example 1187, (S)-(4-(6-methylpyrazolo[1,5-a]pyridin-2-yl)-6,7-dihydro-1H-imidazo[4,5-c]pyridin-5(4H)-yl)(oxazol-5-yl)methanone]: 1000 to 5000 nM; for `Cn1ccc(-c2nnc(C(=O)N3CCc4[nH]cnc4[C@H]3c3cc4cccc(F)n4n3)o2)n1` [Example 1456, (S)-(4-(7-fluoropyrazolo[1,5-a]pyridin-2-yl)-6,7-dihydro-1H-imidazo[4,5-c]pyridin-5(4H)-yl)(5-(1-methyl-1H-pyrazol-3-yl)-1,3,4-oxadiazol-2-yl)methanone]: less than 500 nM; for `O=C(c1nnc(-c2ccn(C(F)(F)F)n2)o1)N1CCc2[nH]cnc2[C@@H]1c1cc2c(OC(F)(F)F)cccn2n1` [Example 1707, (R)-(4-(4-(trifluoromethoxy)pyrazolo[1,5-a]pyridin-2-yl)-6,7-dihydro-1H-imidazo[4,5-c]pyridin-5(4H)-yl)(5-(1-(trifluoromethyl)-1H-pyrazol-3-yl)-1,3,4-oxadiazol-2-yl)methanone]: more than 5000 nM.
The same measure, in the same setting: as for `Cc1cccc2cc([C@H]3c4nc[nH]c4CCN3C(=O)c3nnc(-c4ncccc4F)o3)nn12` [Example 913, (R)-(5-(3-fluoropyridin-2-yl)-1,3,4-oxadiazol-2-yl)(4-(7-methylpyrazolo[1,5-a]pyridin-2-yl)-6,7-dihydro-1H-imidazo[4,5-c]pyridin-5(4H)-yl)methanone], the figure is more than 5000 nM; as for `Cn1nc(C(F)(F)F)nc1C(=O)N1CCc2[nH]cnc2[C@@H]1c1cc2c(Cl)cccn2n1` [Example 1053, (R)-(4-(4-chloropyrazolo[1,5-a]pyridin-2-yl)-6,7-dihydro-1H-imidazo[4,5-c]pyridin-5(4H)-yl)(1-methyl-3-(trifluoromethyl)-1H-1,2,4-triazol-5-yl)methanone], 1000 to 5000 nM; as for `CC(C)(C)c1nnc(C(=O)N2CCc3[nH]cnc3[C@H]2c2cc3c(Cl)cccn3n2)o1` [Example 1047, (S)-(5-(tert-butyl)-1,3,4-oxadiazol-2-yl)(4-(4-chloropyrazolo[1,5-a]pyridin-2-yl)-6,7-dihydro-1H-imidazo[4,5-c]pyridin-5(4H)-yl)methanone], less than 500 nM.
The same measure, in the same setting: as for `Cc1c(-c2nnc(C(=O)N3CCc4[nH]cnc4[C@H]3c3cc4ccccn4n3)o2)cnn1C` [Example 972, (S)-(5-(1,5-dimethyl-1H-pyrazol-4-yl)-1,3,4-oxadiazol-2-yl)(4-(pyrazolo[1,5-a]pyridin-2-yl)-6,7-dihydro-1H-imidazo[4,5-c)pyridin-5(4H)-yl)methanone], the figure is less than 500 nM; as for `O=C(c1nnc(-c2cnccn2)o1)N1CCc2[nH]cnc2[C@@H]1c1cc2cccc(C(F)(F)F)n2n1` [Example 1360, (R)-(5-(pyrazin-2-yl)-1,3,4-oxadiazol-2-yl)(4-(7-(trifluoromethyl)pyrazolo[1,5-a]pyridin-2-yl)-6,7-dihydro-1H-imidazo[4,5-c]pyridin-5(4H)-yl)methanone], more than 5000 nM.
On to `O=C(c1ccnn1C(F)(F)F)N1CCc2[nH]cnc2[C@@H]1c1cc2c(F)cccn2n1` [Example 843, (R)-(4-(4-fluoropyrazolo[1,5-a]pyridin-2-yl)-6,7-dihydro-1H-imidazo[4,5-c]pyridin-5(4H)-yl)(1-(trifluoromethyl)-1H-pyrazol-5-yl)methanone], for which the half-maximal activity concentration (AC50) lay in the range of 1000 to 5000 nM.
Take `Cc1cccc2cc([C@@H]3c4nc[nH]c4CCN3C(=O)c3nnc(C(C)(C)C)o3)nn12` [Example 1020, (S)-(5-(tert-butyl)-1,3,4-oxadiazol-2-yl)(4-(7-methylpyrazolo[1,5-a]pyridin-2-yl)-6,7-dihydro-1H-imidazo[4,5-c]pyridin-5(4H)-yl)methanone]: the AC50 was less than 500 nM.
Consider `O=C(c1nnc(-c2cnn(C(F)(F)F)c2)o1)N1CCc2[nH]cnc2[C@H]1c1cc2cccc(Cl)n2n1` [Example 1444, (S)-(4-(7-chloropyrazolo[1,5-a]pyridin-2-yl)-6,7-dihydro-1H-imidazo[4,5-c]pyridin-5(4H)-yl)(5-(1-(trifluoromethyl)–1H-pyrazol-4-yl)-1,3,4-oxadiazol-2-yl)methanone], for which the AC50 was less than 500 nM.
Same read-out and setting: as for `Cc1cccn2nc([C@H]3c4nc[nH]c4CCN3C(=O)c3nnc(-c4cccnc4)o3)cc12` [Example 895, (R)-(4-(4-methylpyrazolo[1,5-a]pyridin-2-yl)-6,7-dihydro-1H-imidazo[4,5-c]pyridin-5(4H)-yl)(5-(pyridin-3-yl)-1,3,4-oxadiazol-2-yl)methanone], the figure is more than 5000 nM; as for `c1ccc(-c2nnc(N3CCc4[nH]cnc4[C@@H]3c3cc4ccccn4n3)o2)nc1` [Example 1290, (R)-2-(4-(pyrazolo[1,5-a]pyridin-2-yl)-6,7-dihydro-1H-imidazo[4,5-c]pyridin-5(4H)-yl)-5-(pyridin-2-yl)-1,3,4-oxadiazole], 1000 to 5000 nM; as for `CC(C)(O)c1nc(Cl)c(C(=O)N2CCc3[nH]cnc3[C@@H]2c2cc3c(F)cccn3n2)o1` [Example 757, (R)-(4-chloro-2-(2-hydroxypropan-2-yl)oxazol-5-yl)(4-(4-fluoropyrazolo[1,5-a]pyridin-2-yl)-6,7-dihydro-1H-imidazo[4,5-c]pyridin-5(4H)-yl)methanone], 1000 to 5000 nM.
In the case of `O=C(c1nnc(-c2cnn(C(F)F)c2)o1)N1CCc2[nH]cnc2[C@H]1c1cc2ccccn2n1` [Example 650, (S)-(5-(1-(difluoromethyl)-1H-pyrazol-4-yl)-1,3,4-oxadiazol-2-yl)(4-(pyrazolo[1,5-a]pyridin-2-yl)-6,7-dihydro-1H-imidazo[4,5-c]pyridin-5(4H)-yl)methanone], the AC50 lay in the range of 1000 to 5000 nM.
For `O=C(c1nnc(-c2ccc(C(F)(F)F)cc2)o1)N1CCc2[nH]cnc2[C@@H]1c1cc2ccccn2n1` [Example 643, (R)-(4-(pyrazolo[1,5-a]pyridin-2-yl)-6,7-dihydro-1H-imidazo[4,5-c]pyridin-5(4H)-yl)(5-(4-(trifluoromethyl)phenyl)-1,3,4-oxadiazol-2-yl)methanone], the AC50 was more than 5000 nM.

The same experiment, now with this note: AC50, A375 cells expressing human PAH R408W; 24 hrs compound incubation; 13C-Tyrosine by LC-MS; average where tested multiple times.
For the compound `CC(C)c1cccn2nc([C@@H]3c4nc[nH]c4CCN3c3nnc(C4CC(F)(F)C4)o3)cc12` [Example 2519, (S)-2-(3,3-difluorocyclobutyl)-5-(4-(4-isopropylpyrazolo[1,5-a]pyridin-2-yl)-1,4,6,7-tetrahydro-5H-imidazo[4,5-c]pyridin-5-yl)-1,3,4-oxadiazole], the AC50 was 1000 to 5000 nM.
